The values that follow are results of earlier work, collected in patent US11266170B2, “Sweetener and flavor compositions, methods of making and methods of use thereof” (EPC Natural Products Co., Ltd., priority 2018, dated 2022).

Residues, ends and D or L forms follow the SMILES beside them.

For the data set the following is noted: cited from earlier work; for times sweeter than sucrose: relative to sucrose / sugar, the sweetness depends on the tested concentration; for Sweetness by weight / Sweetness by food energy: compared to sucrose.

Consider `OC[C@H]1O[C@H](O[C@]2(CCl)O[C@H](CCl)[C@@H](O)[C@@H]2O)[C@H](O)[C@@H](O)[C@H]1Cl` [sucralose], for which the “times sweeter than sucrose” value is reported as “about 600 times”.

On to Maltodextrin, for which the Sweetness by weight is 0.15.

Consider `C[C@@H]1O[C@@H](O[C@H]2O[C@@H]([C@@H](C)C3CC[C@@H]4[C@H]5CC(=O)[C@@H]6C[C@H](O[C@@H]7O[C@H](CO)[C@@H](O)[C@H](O)[C@H]7O[C@@H]7O[C@@H](C)[C@H](O)[C@@H](O)[C@H]7O)CC[C@]6(C)[C@@H]5CC[C@]34C)CC[C@@H]2C)[C@H](O)[C@H](O)[C@H]1O` (stereo partly drawn) [Osladin], for which the Sweetness by weight is on record as 500.

As for `OC[C@@H](O)[C@@H](O[C@H]1O[C@H](CO)[C@@H](O)[C@H](O)[C@H]1O)[C@H](O)[C@@H](O)CO` [Maltitol], the “Sweetness by food energy” value is 1.7 and the Sweetness by weight is 0.75-0.9.

Consider `OC[C@@H](O)[C@@H](O)CO` [Erythritol], for which the “Sweetness by food energy” value is 14 and the Sweetness by weight is given as 0.6-0.7.

Polydextrose: the Sweetness by weight is 0.1.

Consider `OC[C@@H](O)[C@@H](O)[C@H](O)[C@@H](O)CO` [Sorbitol], for which the “Sweetness by food energy” value is on record as 0.9 and the Sweetness by weight was 0.6.

For the compound `O=C(CO)[C@H](O)[C@H](O)[C@H](O)CO` [Psicose], the Sweetness by weight is 0.7.

Consider Inulin, for which the Sweetness by weight is reported as 0.1.

Turning to `O=C(CO)[C@@H](O)[C@@H](O)[C@H](O)CO` [Tagatose], the “Sweetness by food energy” value is recorded as 2.4 and the Sweetness by weight was 0.92.

For the compound `C=C1C[C@@]23CC[C@H]4[C@@](C)(CCC[C@@]4(C)C(=O)O[C@@H]4O[C@H](CO)[C@@H](O)[C@H](O)[C@H]4O)[C@@H]2CC[C@]1(O[C@@H]1O[C@H](CO)[C@@H](O)[C@H](O)[C@H]1O)C3` [Rubusoside], the “times sweeter than sucrose” value is 200 times.

Regarding `OC[C@@H](O)[C@@H](O)[C@H](O)[C@H](O)CO` [Mannitol], the “Sweetness by food energy” value is 1.2, the Sweetness by weight was 0.5 and the “times sweeter than sucrose” value is recorded as 0.55-0.65 times.

`COc1ccc(CCC(=O)c2c(O)cc(O[C@@H]3O[C@H](CO)[C@@H](O)[C@H](O)[C@H]3O[C@@H]3O[C@@H](C)[C@H](O)[C@@H](O)[C@H]3O)cc2O)cc1O` [NHDC, Neohesperidin dihydrochalcone]: where the note is “at threshold concentrations”, the “times sweeter than sugar at threshold concentrations” value is 1500-1800 times. For the same compound, the “times sweeter than sugar weight-for-weight” value (weight-for-weight) is given as “about 340 times”.

In the case of `OCC(O)CO` [Glycerol], the “Sweetness by food energy” value is on record as 0.55 and the Sweetness by weight is given as 0.6.

In the case of `O=S(=O)([O-])NC1CCCCC1.[Na+]` [sodium cyclamate], the “times sweeter than sucrose” value is reported as “about 30 times”.

Consider `COC(=O)[C@H](Cc1ccccc1)NC(=O)[C@@H](N)CC(=O)O` [Aspartame] (H-Asp-Phe-OMe), for which the “times sweeter than sucrose” value is recorded as 160-200 times.

For “Brazzein (QDKCKKVYENYPVSKCQLANQCNYDCKLDKHARSGECFYDEKRNLQCICDYCEY; UniProt P56552 1-54, looked up) [Protein]”, the Sweetness by weight was 500-2000.

As to Monellin, the Sweetness by weight is listed as 800-2,000.

Regarding `OC[C@H]1O[C@H](OC[C@H]2OC(O)(CO)[C@@H](O)[C@@H]2O)[C@H](O)[C@@H](O)[C@@H]1O` (stereo partly drawn) [Isomaltulose], the Sweetness by weight is 0.5.

Turning to `C[C@H](CC[C@@H](O[C@@H]1O[C@H](CO[C@@H]2O[C@H](CO)[C@@H](O)[C@H](O)[C@H]2O)[C@@H](O)[C@H](O)[C@H]1O[C@@H]1O[C@H](CO)[C@@H](O)[C@H](O)[C@H]1O)C(C)(C)O)[C@H]1CC[C@@]2(C)[C@@H]3CC=C4[C@@H](CC[C@H](O[C@@H]5O[C@H](CO[C@@H]6O[C@H](CO)[C@@H](O)[C@H](O)[C@H]6O)[C@@H](O)[C@H](O)[C@H]5O)C4(C)C)[C@]3(C)[C@H](O)C[C@]12C` [mogroside V], the “times sweeter than sucrose” value is reported as 256-344 times.

Mabinlin: the Sweetness by weight was 100.

In the case of `N[C@@H](C[C@@](O)(Cc1c[nH]c2ccccc12)C(=O)O)C(=O)O` [Monatin], the Sweetness by weight was 3,000.
